Values after ≈ are worked out from the molar mass of the structure shown.
How the values were obtained:
[1] = Absorption coefficient at a wavelength of 365 nm; assay type: physicochemical; conditions: at 365 nm
Text: The absorption coefficient can be determined by the following formula.
α365: absorption coefficient at a wavelength of 365 nm [mL/(g·cm)]
A365: absorbance at a wavelength of 365 nm
c: solution concentration [g/mL]
d: optical path length (of quartz cell) [cm]
In addition, when calculating the absorption coefficient, an absorbance converted from the measurement result of the transmittance may also be used.
T365: light transmittance at a wavelength of 365 nm [%]

[2] = Aqueous solubility; assay type: physicochemical
Description: From such a viewpoint, the metal corrosion inhibitor preferably has an aqueous solubility at 25° C. of 20 g/L or more, more preferably 50 g/L or more, particularly preferably 100 g/L or more.

solubility ([2]; water, 25 °C) | SMILES | absorption coefficient [1] | aqueous solubility [2]
 | c1c[nH]nn1 [Example D-1, 1,2,3-triazole] | 0.3 mL/g/cm | > 1,000 g/L
 | c1nc[nH]n1 [Example D-2, 1,2,4-triazole] | 0.3 mL/g/cm | > 1,000 g/L
 | c1ccc2[nH]nnc2c1 [Example D-3, 1,2,3-benzotriazole] | 0.8 mL/g/cm | 20 g/L (≈ 168 mM)
20 mg/mL (≈ 133 mM) | Sc1nnc(S)s1 [Example D-4, 2,5-dimercapto-1,3,4-thiadiazole, reference compound] | 90 mL/g/cm | 
 | S=c1[nH]c2ccccc2s1 [Example D-5, mercaptobenzothiazole, reference compound] | 65 mL/g/cm | 0.3 g/L (≈ 1.79 mM)

— patent publication US20200123422A1, “Photocurable Adhesive Sheet, Image Display Device Constituent Laminate, Image Display Device Production Method and Method for Preventing Corrosion of Conductive Member” (Mitsubishi Chemical Corporation, priority 2017, published 2020)
